Laboratory results as given in the supplement of paper PMC11781733.
Structures can show the parent of a compound that is named as a salt.

What was measured:
Conditions in all cases: exposure time: 15 min to 3 h acute
Dugesia japonica [1] = assay: contracted body shape incidence (% planarians (vehicle-normalised)); higher = higher incidence or increase relative to vehicle control
Method: (§1)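 Adult asexual Dugesia japonica planarians (1 per well, 48-well plate, n=24 over technical triplicates) were exposed acutely (15 min to 3 h) to each compound (0.5% DMSO or water vehicle) and screened on a robotic platform for crawl-out, stickiness, body shape, phototaxis, noxious-heat scrunching and locomotion endpoints. Binary endpoints are incidence rate x100 normalised to in-plate vehicle controls. Continuous endpoints are the median response normalised to the plate vehicle median, as % change or difference. Negative incidences after vehicle subtraction were set to 0.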

Dugesia japonica [2] = assay: speed in dark vs vehicle (% change vs vehicle); higher = higher incidence or increase relative to vehicle control
Method: as §1

Dugesia japonica [3] = assay: resting fraction in dark vs vehicle (difference in fraction x100 vs vehicle); higher = higher incidence or increase relative to vehicle control
Method: as §1

Dugesia japonica [4] = assay: speed first 30 s blue light vs vehicle (% change vs vehicle); higher = higher incidence or increase relative to vehicle control
Method: as §1

Dugesia japonica [5] = assay: hyperkinesis incidence (% planarians (vehicle-normalised)); higher = higher incidence or increase relative to vehicle control
Method: as §1

Dugesia japonica [6] = assay: C-shape incidence (% planarians (vehicle-normalised)); higher = higher incidence or increase relative to vehicle control
Method: as §1

Dugesia japonica [7] = assay: stickiness incidence (% planarians (vehicle-normalised)); higher = higher incidence or increase relative to vehicle control
Method: as §1

Dugesia japonica [8] = assay: noxious heat displacement strength vs vehicle (% change vs vehicle); higher = higher incidence or increase relative to vehicle control
Method: as §1

Dugesia japonica [9] = assay: anxiety (time in outer well region) vs vehicle (% change vs vehicle); higher = higher incidence or increase relative to vehicle control
Method: as §1

Dugesia japonica [10] = assay: resting fraction in blue light vs vehicle (difference in fraction x100 vs vehicle); higher = higher incidence or increase relative to vehicle control
Method: as §1

Dugesia japonica [11] = assay: pharynx extrusion incidence (% planarians (vehicle-normalised)); higher = higher incidence or increase relative to vehicle control
Method: as §1

Dugesia japonica [12] = assay: speed second 30 s blue light vs vehicle (% change vs vehicle); higher = higher incidence or increase relative to vehicle control
Method: as §1

Dugesia japonica [13] = assay: total locomotor bursts minus vehicle (bursts difference vs vehicle); higher = higher incidence or increase relative to vehicle control
Method: as §1

Dugesia japonica [14] = assay: crawl-out incidence (% planarians); higher = higher incidence or increase relative to vehicle control
Method: as §1, with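 “x100.” for “x100 normalised to in-plate vehicle controls.”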

Dugesia japonica [15] = assay: loss of phototaxis incidence (% planarians (vehicle-normalised)); higher = higher incidence or increase relative to vehicle control
Method: as §1

Dugesia japonica [16] = assay: any abnormal body shape incidence (% planarians (vehicle-normalised)); higher = higher incidence or increase relative to vehicle control
Method: as §1

Dugesia japonica [17] = assay: corkscrew incidence (% planarians (vehicle-normalised)); higher = higher incidence or increase relative to vehicle control
Method: as §1

Dugesia japonica [18] = assay: loss of heat-induced scrunching incidence (% planarians (vehicle-normalised)); higher = higher incidence or increase relative to vehicle control
Method: as §1

Structure (SMILES) | contracted body shape incidence (Dugesia japonica [1]) | speed in dark (Dugesia japonica [2]) | resting fraction in dark (Dugesia japonica [3]) | speed first 30 s blue light (Dugesia japonica [4]) | hyperkinesis incidence (Dugesia japonica [5]) | C-shape incidence (Dugesia japonica [6]) | stickiness incidence (Dugesia japonica [7]) | noxious heat displacement strength (Dugesia japonica [8]) | anxiety (Dugesia japonica [9]) | resting fraction in blue light (Dugesia japonica [10]) | pharynx extrusion incidence (Dugesia japonica [11]) | speed second 30 s blue light (Dugesia japonica [12]) | total locomotor bursts minus vehicle (Dugesia japonica [13]) | crawl-out incidence (Dugesia japonica [14]) | loss of phototaxis incidence (Dugesia japonica [15]) | any abnormal body shape incidence (Dugesia japonica [16]) | corkscrew incidence (Dugesia japonica [17]) | loss of heat-induced scrunching incidence (Dugesia japonica [18])
O=C1CC2(CCCC2)CC(=O)N1CCCCN1CCN(c2ncccn2)CC1 [buspirone] (10 µM) | 4.17 | -20.5 | 16.7 | -68.5 | 20.8 | 0 | 16.7 | -46.4 | -1.55 | 26.6 | 0 | -54.8 | 6.25 | 0 | 25 | 20.8 | 0 | 8.33
O=C1CC2(CCCC2)CC(=O)N1CCCCN1CCN(c2ncccn2)CC1 [buspirone] (31.6 µM) | 0 | -11.1 | 3.7 | -64.5 | 16.7 | 0 | 16.7 | -57 | 7.76 | 34.3 | 0 | -74.1 | 3.5 | 0 | 54.2 | 16.7 | 0 | 62.5
O=C1CC2(CCCC2)CC(=O)N1CCCCN1CCN(c2ncccn2)CC1 [buspirone] (100 µM) | 0 | -41 | 43 | -79.9 | 4.76 | 0 | 19.1 | -53.2 | -20.5 | 44.9 | 0 | -81.2 | 0.5 | 12.5 | 42.9 | 9.52 | 4.76 | 57.1
CN(C)CCCC1(c2ccc(F)cc2)OCc2cc(C#N)ccc21 (stereo not given) [citalopram hydrobromide] (31.6 µM) | 0 | 3.2 | 1.41 | 6.16 | 16.7 | 0 | ≤ 0 | -16.4 | 4.85 | 0 | 0 | -6.94 | 1.25 | 0 | 16.7 | 16.7 | 0 | 33.3
CN(C)CCCC1(c2ccc(F)cc2)OCc2cc(C#N)ccc21 (stereo not given) [citalopram hydrobromide] (100 µM) | 0 | -4.27 | 1.35 | -6.21 | 8.33 | 0 | 8.33 | -22.5 | 15.3 | 0 | 0 | -0.52 | 1.5 | 0 | ≤ 0 | 8.33 | 0 | 25
CN(C)CCCC1(c2ccc(F)cc2)OCc2cc(C#N)ccc21 (stereo not given) [citalopram hydrobromide] (316 µM) | 0 | 10.9 | 1.16 | 1.47 | 13 | 0 | 8.7 | -25.1 | 12.2 | 0.559 | 0 | 6.83 | -3.5 | 0 | 4.35 | 13 | 0 | 13
CN(C)CCCC1(c2ccc(F)cc2)OCc2cc(C#N)ccc21 (stereo not given) [citalopram hydrobromide] (1000 µM) | 0 | -48.7 | 17.8 | -57.3 | 83.3 | 0 | ≤ 0 | -42.7 | 11.2 | 16.8 | 0 | -71.1 | 40.2 | 0 | 16.7 | 83.3 | 0 | 8.33
CN1CCN(C2=Nc3cc(Cl)ccc3Nc3ccccc32)CC1 [clozapine] (3.16 µM) | 8.33 | -74 | 74.7 | -90.3 | 20.8 | 0 | 20.8 | -40.6 | -27.9 | 69.7 | 0 | -87.9 | 26.8 | 0 | 16.7 | 20.8 | 4.17 | 33.3
CN1CCN(C2=Nc3cc(Cl)ccc3Nc3ccccc32)CC1 [clozapine] (10 µM) | 8.33 | -75.7 | 73.9 | -89.8 | 54.2 | 4.17 | 25 | -39.6 | -100 | 70.9 | 0 | -90.5 | 15.2 | 0 | 29.2 | 58.3 | 4.17 | 75
CN1CCN(C2=Nc3cc(Cl)ccc3Nc3ccccc32)CC1 [clozapine] (31.6 µM) | 4.17 | -76.4 | 77.6 | -93.4 | 50 | 29.2 | ≤ 0 | -34.2 | -27.4 | 75.8 | 0 | -91.3 | -3 | 0 | 54.2 | 87.5 | 29.2 | 66.7
CN1CCN(C2=Nc3cc(Cl)ccc3Nc3ccccc32)CC1 [clozapine] (100 µM) | 28.6 | -79.5 | 77.6 | -96.9 | 23.8 | 57.1 | ≤ 0 | -29.6 | -11.2 | 87.8 | 0 | -96.2 | -4.5 | 0 | 62.5 | 81 | 9.52 | 79.2
CN1C(=O)CN=C(c2ccccc2)c2cc(Cl)ccc21 [diazepam] (3.16 µM) | 0 | 16.7 | -5.99 | 21.1 | 0 | 0 | ≤ 0 | -6.66 | -3.35 | -0.17 | 0 | -4.64 | -3 | 0 | 41.7 | 0 | 0 | 29.2
CN1C(=O)CN=C(c2ccccc2)c2cc(Cl)ccc21 [diazepam] (10 µM) | 0 | 15.9 | -5.91 | 0.43 | 0 | 0 | 21.7 | -17.4 | 0.94 | 0.83 | 0 | -16.1 | -1 | 0 | 50 | 0 | 0 | 12.5
CN1C(=O)CN=C(c2ccccc2)c2cc(Cl)ccc21 [diazepam] (31.6 µM) | 8.33 | -43.7 | 56.8 | -43.1 | 8.33 | 25 | 16.7 | -21.6 | -8.02 | 17.2 | 25 | -63 | 6.5 | 0 | 8.33 | 41.7 | 4.17 | 16.7
CN1C(=O)CN=C(c2ccccc2)c2cc(Cl)ccc21 [diazepam] (100 µM) | 12.5 | -72.2 | 48.6 | -84.2 | 16.7 | 62.5 | ≤ 0 | -45.6 | -36.9 | 50.2 | 37.5 | -87.6 | 55 | 0 | 29.2 | 100 | 20.8 | 37.5
